According to ChEMBL document CHEMBL1131837, “Synthesis of new (benzimidazolyl)piperazines with affinity for the 5-HT1A receptor via Pd(0) amination of bromobenzimidazoles” (Bioorg Med Chem Lett, 1999):
pKi: −log10 of the molar value.

Legend:
[1] = target: T1, 5-hydroxytryptamine receptor 1A (Rattus norvegicus, UniProt P19327); assay: In vitro binding affinity towards 5-hydroxytryptamine 1A receptor was determined using [3H]8-OH-DPAT as radioligand in rat cerebral cortex membranes; […]; format: cell membranes
T1 sequence (P19327 whole entry): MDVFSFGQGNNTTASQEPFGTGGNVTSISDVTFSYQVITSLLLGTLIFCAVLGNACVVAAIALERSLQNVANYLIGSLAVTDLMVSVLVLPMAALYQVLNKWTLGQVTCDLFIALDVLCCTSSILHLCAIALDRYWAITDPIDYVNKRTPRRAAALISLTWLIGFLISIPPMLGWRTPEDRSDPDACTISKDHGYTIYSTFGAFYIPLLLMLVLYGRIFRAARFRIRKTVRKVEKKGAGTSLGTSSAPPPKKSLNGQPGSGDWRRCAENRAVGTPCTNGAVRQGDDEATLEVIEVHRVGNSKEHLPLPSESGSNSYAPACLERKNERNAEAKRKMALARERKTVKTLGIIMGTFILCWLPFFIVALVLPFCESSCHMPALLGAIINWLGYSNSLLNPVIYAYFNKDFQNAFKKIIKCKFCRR

[2] = target: T1, 5-hydroxytryptamine receptor 1A; assay: In vitro binding affinity towards 5-hydroxytryptamine 1A receptor was determined using [3H]8-OH-DPAT as radioligand in rat cerebral cortex membranes; format: cell membranes, Membrane

| SMILES | Ki [1] | pKi [2] |
| --- | --- | --- |
| c1ccc(C(c2ccccc2)(c2ccccc2)n2cnc3c(N4CCNCC4)cccc32)cc1 | Not Active |  |
| O=C1C2CCCN2C(=O)N1CCCCN1CCN(c2cccc3[nH]cnc23)CC1 (centres undefined) |  | 8.92 |
| CN1CCN(c2cccc3[nH]cnc23)CC1 |  | 8.33 |
| CN1CCN(c2cccc3c2ncn3C(c2ccccc2)(c2ccccc2)c2ccccc2)CC1 | Not Active |  |
